According to patent US9061030B2, “sGC stimulators” (IRONWOOD PHARMACEUTICALS, INC., priority 2010, dated 2015):

Experiments:
[1] = molecular target: T1, soluble guanylate cyclase (sGC) (Homo sapiens, UniProt Q02108+Q02153); assay: sGC-HEK-cGMP assay; format: cell-based; conditions: HEK293 cells, 10 μM SNP, percentage of sGC activity obtained with positive control BAY 41-2272 (= 100%); for Emax at 10 µM: compound at 10 μM; for Emax at 30 µM: compound at 30 μM
T1 construct: endogenously expressing soluble guanylate cyclase (sGC); endogenous in cells; host or cells: HEK293
T1 sequence (Q02153 1-619): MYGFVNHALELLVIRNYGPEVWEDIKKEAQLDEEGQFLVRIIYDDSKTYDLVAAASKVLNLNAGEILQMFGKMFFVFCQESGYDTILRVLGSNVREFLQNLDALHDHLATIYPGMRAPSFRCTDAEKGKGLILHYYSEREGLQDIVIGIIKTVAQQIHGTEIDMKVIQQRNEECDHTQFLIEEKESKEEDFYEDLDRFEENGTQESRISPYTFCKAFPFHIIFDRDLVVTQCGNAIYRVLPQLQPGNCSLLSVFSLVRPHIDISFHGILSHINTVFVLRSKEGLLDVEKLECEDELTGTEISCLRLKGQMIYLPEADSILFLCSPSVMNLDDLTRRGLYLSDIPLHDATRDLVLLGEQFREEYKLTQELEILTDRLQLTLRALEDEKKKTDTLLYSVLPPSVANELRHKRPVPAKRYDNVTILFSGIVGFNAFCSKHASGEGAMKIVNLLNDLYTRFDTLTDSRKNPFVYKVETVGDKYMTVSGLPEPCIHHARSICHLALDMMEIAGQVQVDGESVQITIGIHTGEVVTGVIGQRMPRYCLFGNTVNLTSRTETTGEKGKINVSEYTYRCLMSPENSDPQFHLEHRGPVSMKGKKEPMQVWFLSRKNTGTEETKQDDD
T1 sequence (Q02108 1-690): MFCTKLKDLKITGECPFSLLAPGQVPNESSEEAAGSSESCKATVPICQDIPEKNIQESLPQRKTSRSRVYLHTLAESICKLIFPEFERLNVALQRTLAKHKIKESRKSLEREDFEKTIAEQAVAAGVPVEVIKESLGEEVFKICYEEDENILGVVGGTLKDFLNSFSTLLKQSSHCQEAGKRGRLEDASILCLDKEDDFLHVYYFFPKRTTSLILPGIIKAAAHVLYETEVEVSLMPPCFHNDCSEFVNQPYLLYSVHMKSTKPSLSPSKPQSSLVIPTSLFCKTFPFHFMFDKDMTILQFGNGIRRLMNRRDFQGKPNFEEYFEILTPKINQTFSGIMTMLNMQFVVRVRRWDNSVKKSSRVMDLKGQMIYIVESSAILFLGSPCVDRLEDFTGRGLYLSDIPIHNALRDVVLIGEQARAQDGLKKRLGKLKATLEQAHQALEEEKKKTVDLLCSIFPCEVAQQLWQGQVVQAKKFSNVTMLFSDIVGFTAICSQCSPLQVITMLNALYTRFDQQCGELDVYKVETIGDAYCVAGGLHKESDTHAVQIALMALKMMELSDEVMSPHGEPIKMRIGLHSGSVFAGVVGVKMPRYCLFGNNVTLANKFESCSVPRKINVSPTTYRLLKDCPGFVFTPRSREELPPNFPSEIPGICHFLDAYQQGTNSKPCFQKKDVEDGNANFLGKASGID
Experimental: Human embryonic kidney cells (HEK293), endogenously expressing soluble guanylate cyclase (sGC), were used to evaluate the activity of the test compounds. Compounds stimulating the sGC receptor should cause an increase in the intracellular concentration of cGMP. HEK 293 cells were seeded in Dulbecco's Modification of Eagle's Medium supplemented with fetal bovine serum (10% final) and L-glutamine (2 mM final) in a 200 μL volume at a density of 1×10^5 cells/well in a poly-D-lysine coated 96 well flat bottom plate and grown overnight at 37° C. Medium was aspirated and cells were washed with 1× Hank's Buffered Saline Salt Solution (200 μL). Cells were then incubated for 15 minutes at 37° C. with 0.5 mM 3-isobutyl-1-methylxanthine (200 μL). Test article was then added to the assay mixture (2 μL) and incubated in the presence of 10 μM Sodium Nitroprusside (SNP) at 37° C. for 10 minutes. After the 10 minute incubation, the assay mixture was aspirated and 0.1M HCl (200 μL) was added to the cells. The plate was incubated at 4° C. for 30 minutes in the 0.1M HCl to stop the reaction and lysed the cells. The plates were then centrifuged at 1,200 g for 5 minutes at room temperature. Supernatants were collected and transferred to a new flat bottom 96 well plate for analysis. Vehicle controls were carried out using DMSO (1%). A known sGC stimulator, BAY 41-2272, was used as the positive control.
Samples were diluted with an equal volume of 1 M Ammonium Acetate (pH 7) to neutralize samples for better chromatography. A 2×cGMP standard curve was prepared in 0.1 M HCl and then diluted with an equal volume of 1 M Ammonium Acetate, with the following final concentrations in nM: 1024, 512, 256, 128, 64, 32, 16, 8, 4, 2, 1.cGMP concentrations were determined from each sample using the LC/MS conditions (Table 2 below) and calculated standard curve. EC50 values were calculated from concentration-response curves generated with GraphPad Prism Software.
The biological activities of some of the compounds according to Formula IA or Formula IB determined with the sGC-HEK assay are summarized in Table 3 below.

[2] = molecular target: T2, Human soluble guanylate cyclase enzyme (hsGC) (Homo sapiens, UniProt Q02108+Q02153); assay: Purified human sGC enzyme activity assay (with or without SNP); format: biochemical; conditions: 30 μM compound; for sGC Enzyme Activity Increase at 30 μM with SNP: 1 μM SNP, specific activity vs DMSO and SNP; for sGC Enzyme Activity Increase at 30 μM without SNP: specific activity vs DMSO control
T2 construct: purchased Enzo Inc. ALX-201-177
T2 sequence (Q02153 1-619): T1 sequence (Q02153 1-619)
T2 sequence (Q02108 1-690): T1 sequence (Q02108 1-690)
Experimental: Human soluble guanylate cyclase enzyme (hsGC) obtained from Enzo Inc. (P/N: ALX-201-177) was used to evaluate the activity of test compounds. The assay reactions contained 0.1 M Tris (pH 8.0), 0.5 mg/mL BSA (pH 8.0), 2 mM DTT, 2 mM MgCl2, 300 μM GTP, 1 mM 3-isobutyl-1-methylxanthine (IBMX) and 5 ng human soluble guanylate cyclase enzyme. Test compounds in DMSO were then added (2 μL, 10 or 30 μM final concentration) and incubated (200 μL, 96-well plate format) at 37° C. for 30 minutes. The controls were carried out using 2 μL DMSO. After the 30 minute incubation, the reaction was stopped with the addition of 200 μL of cold methanol. The plate was then centrifuged at 3,200 rpm for 10 minutes at room temperature. Supernatants (200 μL) were collected and transferred to a new 96 well plate for analysis.
An 8 point cGMP (Sigma-Aldrich P/N: G6129) standard curve was prepared in assay buffer ranging from 0.156-20 μM. Samples for the cGMP standard curve were then diluted with an equal volume of methanol resulting in final cGMP concentrations of 0.078-10 μM.
The cGMP standard curve was generated using GraphPad Prism Software.
Calculations: Specific Activity was determined by the amount of cGMP formed (nmoles) per mg of sGC per min. Enzyme activity “fold-change” was calculated by dividing the Specific Activity for a test compound by the Specific Activity of DMSO control.
The enzymatic activity fold-change of the purified human sGC enzyme determined in the presence of each of the test compounds individually at 10 or 30 μm without the addition of sodium nitroprusside (SNP), a nitric oxide donor, is presented in Table 5.
Enzyme assays were also performed as described above, but in the presence of 1 μM sodium nitroprusside (SNP). Enzymatic activity fold-changes are reported for selected test compounds in the presence of both SNP and the test compound. These were calculated by dividing the specific activity (activity increase) for the test compound dissolved in DMSO and SNP over the specific activity for the mixture of DMSO and SNP.

Row | SMILES | Emax at 10 µM [1] | Emax at 30 µM [1] | sGC Enzyme Activity Increase at 30 μM with SNP [2] | sGC Enzyme Activity Increase at 30 μM without SNP [2]
1 | Fc1ccccc1Cn1nc(-c2cscn2)nc1-c1ncccn1 [Compound I-20] | 0 to 5% | 0 to 5% | B (B = 1 to <2 fold increase) | B (B = 1 to <2 fold increase)
2 | Fc1ccccc1Cn1nc(-c2ccccn2)nc1C1CC1 [Compound I-21] | 0 to 5% | 0 to 5% | B (B = 1 to <2 fold increase) | B (B = 1 to <2 fold increase)
3 | Fc1ccccc1Cn1nc(-c2ccccn2)nc1C1CCC1 [Compound I-24] | 5 to 10% | 10 to 20% | C (C = 2 to <5 fold increase) | C (C = 2 to <5 fold increase)
4 | Fc1ccccc1Cn1nc(-c2nccs2)nc1-c1ccccn1 [Compound I-26] | 10 to 20% | 10 to 20% | D (D = 5 to <10 fold increase) | C (C = 2 to <5 fold increase)
5 | Fc1ccccc1Cn1nc(-c2ncccn2)nc1-c1ccccc1 [Compound I-27] | 0 to 5% | 0 to 5% | B (B = 1 to <2 fold increase) | B (B = 1 to <2 fold increase)
6 | Cc1nc(-c2ncccn2)nn1Cc1ccccc1F [Compound I-28] | 0 to 5% | 0 to 5% | B (B = 1 to <2 fold increase) | B (B = 1 to <2 fold increase)
7 | Fc1ccccc1Cn1nc(-c2nccs2)nc1-c1ncccn1 [Compound I-29] | 0 to 5% | 0 to 5% | C (C = 2 to <5 fold increase) | B (B = 1 to <2 fold increase)
8 | Fc1ccccc1Cn1nc(-c2ccccn2)nc1-c1ncccn1 [Compound I-31] | 0 to 5% | 0 to 5% | C (C = 2 to <5 fold increase) | B (B = 1 to <2 fold increase)
9 | Fc1ccccc1Cn1nc(-c2ncccn2)nc1-c1ccccn1 [Compound I-32] | 0 to 5% | 10 to 20% | C (C = 2 to <5 fold increase) | C (C = 2 to <5 fold increase)
10 | COC(=O)c1nc(-c2ccccn2)nn1Cc1ccccc1F [Compound I-35, methyl 1-(2-fluorobenzyl)-3-(pyridin-2-yl)-1H-1,2,4-triazole-5-carboxylate] | 0 to 5% | 0 to 5% | C (C = 2 to <5 fold increase) | B (B = 1 to <2 fold increase)
11 | Fc1ccccc1Cn1nc(-c2cc(Br)ccn2)nc1-c1nccs1 [Compound I-36, 2-(3-(4-bromopyridin-2-yl)-1-(2-fluorobenzyl)-1H-1,2,4-triazol-5-yl)thiazole] | 0 to 5% | 0 to 5% | B (B = 1 to <2 fold increase) | B (B = 1 to <2 fold increase)
12 | Fc1ccccc1Cn1nc(-c2nccs2)nc1-c1cc(Br)ccn1 [Compound I-37, 2-(5-(4-bromopyridin-2-yl)-1-(2-fluorobenzyl)-1H-1,2,4-triazol-3-yl)thiazole] | 10 to 20% | 20 to 40% | D (D = 5 to <10 fold increase) | C (C = 2 to <5 fold increase)
13 | Fc1ccc(-c2nc(-c3nccs3)nn2Cc2ccccc2F)nc1 [Compound I-39] | 5 to 10% | 5 to 10% | C (C = 2 to <5 fold increase) | B (B = 1 to <2 fold increase)
14 | Fc1ccccc1Cn1nc(-c2ccccn2)nc1-c1nnco1 [Compound I-42, 2-(1-(2-fluorobenzyl)-3-(pyridin-2-yl)-1H-1,2,4-triazol-5-yl)-1,3,4-oxadiazole] | 0 to 5% | 5 to 10% | C (C = 2 to <5 fold increase) | B (B = 1 to <2 fold increase)
15 | Fc1ccccc1Cn1nc(-c2cocn2)nc1-c1ncccn1 [Compound I-45] | 0 to 5% | 0 to 5% | B (B = 1 to <2 fold increase) | B (B = 1 to <2 fold increase)
16 | Nc1ccnc(-c2nc(-c3nccs3)nn2Cc2ccccc2F)c1 [Compound I-47] | 0 to 5% | 0 to 5% | B (B = 1 to <2 fold increase) | B (B = 1 to <2 fold increase)
